By IC50 is commonly meant the concentration needed to halve the response being measured. By melting point is commonly meant the temperature, or range, at which the solid turns liquid.

The source of these data is US7723331B2, “Thienopyrimidine compounds and uses thereof” (AstraZeneca AB, priority 2006, dated 2010).

The target of data set [1] is T1, human melanin concentrating hormone receptor 1 (hMCHr1) (Homo sapiens, UniProt Q99705).
T1 construct: purchased Euroscreen; host or cells: CHO-K1
The data set can be described thus: MCHr1 radioligand binding (125I-MCH displacement). Particulars: membranes from CHO-K1 cells expressing hMCHr1, 125I-MCH. Here is the method: Assays were performed on membranes prepared from CHO-K1 cells expressing the human melanin concentrating hormone receptor 1 (hMCHr1, […] protein; Euroscreen). Assays were performed in a 96-well plate format in a final reaction volume of […] per well. Each well contained 6 μg of membrane proteins diluted in binding buffer (50 mM Tris, 3 mM MgCl2, 0.05% bovine serum albumin and the radioligand ^125I-MCH (IM344 Amersham) was added to give 10 000 cpm (counts per minute) per well. Each well contained 2 μl of the appropriate concentration of competitive antagonist prepared in DMSO or in HOAc and left to stand at 30° C. for 60 minutes. Non-specific binding was determined as that remaining following incubation with 1 μM MCH (Melanin concentrating hormone, H-1482 Bachem). The reaction was terminated by transfer of the reaction to GF/A filters using a Micro96 Harvester (Skatron Instruments, Norway). Filters were washed with assay buffer. Radioligand retained on the filters was quantified using a 1450 Microbeta TRILUX (Wallac, Finland).
Non-specific binding was subtracted from all values determined. Maximum binding was that determined in the absence of any competitor following subtraction of the value determined for non-specific binding. Binding of compounds at various concentrations was plotted according to the equation y=A+((B−A)/1+((C/x)^D))) and IC50 estimated where: […]

The target in another data set is hERG (Homo sapiens, UniProt Q12809). The data set can be described thus: hERG activity (planar-array-based voltage clamp). The format is cell-based. Particulars: modified method of Kiss et al. Here is the method: hERG testing was performed using a modified version of the method described by Kiss et al., “High throughput ion-channel pharmacology: planar-array-based voltage clamp.” Assay Drug Dev Technol., 2003, 1, 127-35.

The target in a further data set is T2, recombinant hMCHr1 (Homo sapiens, UniProt Q99705).
T2 construct: purchased Euroscreen
The data set can be described thus: MCHr1 functional assay ([35S]GTPγS). The class given is biochemical. The conditions noted are these: hMCHr1 membranes, ED80 concentration of MCH. On the procedure:
Membranes expressing recombinant hMCHr1 (5.45 pmol/mg protein; Euroscreen) were prepared in assay buffer (50 mM HEPES, 100 mM NaCl, 5 mM MgCl2, 1 mM EDTA, 200 μM DTT, 20 μM GDP (Sigma) containing 0.1 μg/ml BSA, pH7.4) before assay. The assays were performed using membranes at 6 μg/well in an assay volume of 200 μL and the appropriate concentrations of compounds prepared in DMSO or in HOAc. The reaction was started by addition of 0.056 nM [^35S]GTPγS (Specific activity >1000 Ci/mmol; Amersham) and an ED80 concentration of MCH (determined for each membrane and each MCH batch). Non-specific binding was determined using 20 μM non-radiolabelled GTPγS. Plates were incubated for 45 min at 30° C. Free and bound GTPγS were separated by filtration binding using GF/B filter mats presoaked in wash buffer (50 mM Tris, 5 mM MgCl2, 50 mM NaCl, pH 7.4) using a Micro96 cell harvester (Skatron Instruments) and the filters then dried at 50° C. before counting using a 1450 Microbeta TRILUX (Wallac).
Data are means±SD for experiments performed in triplicate. IC50 values of antagonists were determined using non-linear regression analysis of concentration response curves using Activity Base.
(In general: GTPγS resists hydrolysis and so accumulates on activated G proteins.)

hERG, sequence (Q12809 whole entry): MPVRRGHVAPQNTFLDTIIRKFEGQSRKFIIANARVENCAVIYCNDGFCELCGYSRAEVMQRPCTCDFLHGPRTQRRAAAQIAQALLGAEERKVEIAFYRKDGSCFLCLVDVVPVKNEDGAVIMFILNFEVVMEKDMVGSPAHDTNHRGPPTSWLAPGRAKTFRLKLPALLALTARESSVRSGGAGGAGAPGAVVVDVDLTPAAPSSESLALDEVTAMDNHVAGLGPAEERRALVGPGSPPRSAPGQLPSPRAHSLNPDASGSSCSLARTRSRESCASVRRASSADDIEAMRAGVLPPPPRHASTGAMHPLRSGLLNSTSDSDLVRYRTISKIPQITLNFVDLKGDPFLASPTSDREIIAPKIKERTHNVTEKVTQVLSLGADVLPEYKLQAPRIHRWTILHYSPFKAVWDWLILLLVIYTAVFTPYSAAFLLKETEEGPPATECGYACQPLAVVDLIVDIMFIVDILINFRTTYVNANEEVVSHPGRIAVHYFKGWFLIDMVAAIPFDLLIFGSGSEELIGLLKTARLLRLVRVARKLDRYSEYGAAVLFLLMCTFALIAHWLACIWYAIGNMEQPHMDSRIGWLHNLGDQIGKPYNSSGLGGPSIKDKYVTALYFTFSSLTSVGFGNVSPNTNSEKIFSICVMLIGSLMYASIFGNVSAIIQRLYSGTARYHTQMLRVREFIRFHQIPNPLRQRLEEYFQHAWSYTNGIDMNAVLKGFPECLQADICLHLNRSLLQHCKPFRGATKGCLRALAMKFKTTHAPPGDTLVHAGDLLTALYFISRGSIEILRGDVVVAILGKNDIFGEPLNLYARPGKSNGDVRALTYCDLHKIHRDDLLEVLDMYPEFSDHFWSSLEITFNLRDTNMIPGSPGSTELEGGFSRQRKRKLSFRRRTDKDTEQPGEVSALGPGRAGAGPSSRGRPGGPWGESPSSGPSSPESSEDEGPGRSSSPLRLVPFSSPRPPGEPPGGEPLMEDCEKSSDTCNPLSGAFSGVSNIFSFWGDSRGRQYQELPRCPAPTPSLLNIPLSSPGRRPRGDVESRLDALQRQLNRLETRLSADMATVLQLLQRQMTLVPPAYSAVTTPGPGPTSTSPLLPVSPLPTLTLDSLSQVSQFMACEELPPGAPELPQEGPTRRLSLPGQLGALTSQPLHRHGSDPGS
T1 sequence (Q99705 whole entry): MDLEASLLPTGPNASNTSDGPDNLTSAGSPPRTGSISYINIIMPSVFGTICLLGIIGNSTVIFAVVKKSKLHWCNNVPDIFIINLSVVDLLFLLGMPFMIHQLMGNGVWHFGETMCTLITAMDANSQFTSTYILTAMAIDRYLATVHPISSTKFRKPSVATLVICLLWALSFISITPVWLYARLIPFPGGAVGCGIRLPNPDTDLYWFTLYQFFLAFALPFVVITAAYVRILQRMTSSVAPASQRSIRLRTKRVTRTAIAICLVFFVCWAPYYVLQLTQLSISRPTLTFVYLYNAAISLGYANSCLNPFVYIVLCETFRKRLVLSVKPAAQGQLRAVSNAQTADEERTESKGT
T2 sequence (Q99705 whole entry): as above

In the case of `CN1[C@@H]2CC[C@H]1C[C@@H](Oc1cccc(Cn3cnc4cc(-c5ccc(Cl)cc5)sc4c3=O)c1)C2` [Example 1, 6-(4-Chlorophenyl)-3-(3-{[(3-endo)-8-methyl-8-azabicyclo[3.2.1]oct-3-yl]oxy}benzyl)thieno[3,2-d]pyrimidin-4(3H)-one], the IC50 in data set [1] was found to be 0.026 µM; at hERG, 6.5 µM.
For `CN1CCN(Cc2cccc(Cn3cnc4cc(-c5ccc(Cl)cc5)sc4c3=O)c2)CC1` [Example 5, 6-(4-Chlorophenyl)-3-{3-[(4-methylpiperazin-1-yl)methyl]benzyl}thieno[3,2-d]pyrimidin-4(3H)-one], the IC50 at recombinant hMCHr1 turned out to be 0.042 µM.
Take `CN1CCC(Oc2cccc(Cn3cnc4cc(-c5ccc(Cl)cc5)sc4c3=O)n2)CC1` [Example 11, 6-(4-Chlorophenyl)-3-({6-[(1-methylpiperidin-4-yl)oxy]pyridin-2-yl}methyl)thieno[3,2-d]pyrimidin-4(3H)-one]: the melting point is 202 to 203 °C.
